Measurements reported in ChEMBL document CHEMBL4359843, “Linear and Rationally Designed Stapled Peptides Abrogate TLR4 Pathway and Relieve Inflammatory Symptoms in Rheumatoid Arthritis Rat Model” (J Med Chem, 2019).
Calls of active or inactive are those of the source. The rule behind the calls is not given here. Where a SMILES comes first, the peptide text is derived from it. Bridges are numbered along the chain shown (N, C = ends).

How the values were obtained:
Rattus norvegicus [1] = test: Antiarthritic activity in Lewis rat model of complete Freund's adjuvant-induced arthritis assessed as reduction in ankle swelling and edema at 1 nmol/g administered intra-articularly into knee joint after 2 weeks by visual analysis; assay type: functional, organism-based
Toll-like receptor 4 [2] = biological target: T1, Toll-like receptor 4 (Homo sapiens, UniProt O00206); test: Antagonist activity at TLR4 in human THP1 cells assessed as reduction in LPS-induced p38 phosphorylation at 50 uM after 15 to 30 mins by Western blot analysis; assay type: cell-based
Toll-like receptor 4 [3] = biological target: T1, Toll-like receptor 4; test: Antagonist activity at TLR4 in human THP1 cells assessed as reduction in LPS-induced IL6 secretion at 50 uM after 24 hrs by ELISA; assay type: cell-based
TLR2/TLR6 (Homo sapiens) [4] = biological target: T2, TLR2/TLR6 (Homo sapiens) (UniProt O60603+Q9Y2C9); test: Antagonist activity at TLR2/6 in human THP1 cells assessed as reduction in FSL-1-induced IL6 secretion at 50 uM after 24 hrs by ELISA; assay type: cell-based
[5] = biological target: T3, Toll-like receptor 4 (Mus musculus) (UniProt Q9QUK6); test: Antagonist activity at TLR4 in mouse RAW264.7 cells assessed as reduction in LPS-induced IFNbeta secretion at 5 to 50 uM after 24 hrs by ELISA; assay type: cell-based
T3 sequence (whole entry): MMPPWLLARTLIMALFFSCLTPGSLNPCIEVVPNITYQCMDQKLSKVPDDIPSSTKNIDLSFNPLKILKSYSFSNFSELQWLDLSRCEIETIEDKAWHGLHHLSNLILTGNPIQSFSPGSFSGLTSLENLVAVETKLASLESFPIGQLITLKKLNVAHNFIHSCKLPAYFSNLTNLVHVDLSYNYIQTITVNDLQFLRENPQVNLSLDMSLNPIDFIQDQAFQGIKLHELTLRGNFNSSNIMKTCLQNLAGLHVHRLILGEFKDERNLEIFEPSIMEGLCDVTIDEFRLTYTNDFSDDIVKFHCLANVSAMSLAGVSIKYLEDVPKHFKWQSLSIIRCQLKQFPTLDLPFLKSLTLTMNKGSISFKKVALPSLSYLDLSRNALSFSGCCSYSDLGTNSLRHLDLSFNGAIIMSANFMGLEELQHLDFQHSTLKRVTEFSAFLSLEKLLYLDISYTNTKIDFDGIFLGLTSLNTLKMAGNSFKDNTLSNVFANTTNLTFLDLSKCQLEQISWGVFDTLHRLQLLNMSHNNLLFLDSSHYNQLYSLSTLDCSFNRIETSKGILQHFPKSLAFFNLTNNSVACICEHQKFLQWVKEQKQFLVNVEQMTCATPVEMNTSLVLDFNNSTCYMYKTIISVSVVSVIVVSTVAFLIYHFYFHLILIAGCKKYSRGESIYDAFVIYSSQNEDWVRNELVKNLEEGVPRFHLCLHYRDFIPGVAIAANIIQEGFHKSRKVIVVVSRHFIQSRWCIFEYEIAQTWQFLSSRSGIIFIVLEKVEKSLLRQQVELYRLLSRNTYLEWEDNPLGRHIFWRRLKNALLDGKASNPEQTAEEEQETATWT

Toll-like receptor 4 [6] = biological target: T1, Toll-like receptor 4; test: Antagonist activity at TLR4 in human THP1 cells assessed as reduction in LPS-induced JNK phosphorylation at 50 uM after 15 to 30 mins by Western blot analysis; assay type: cell-based
Rattus norvegicus [7] = test: Antiarthritic activity in Lewis rat model of complete Freund's adjuvant-induced arthritis assessed as increase in cartilage thickness at 1 nmol/g administered intra-articularly into knee joint after 1 week by H and E staining based histopathological analysis; assay type: functional, organism-based
Rattus norvegicus [8] = test: Antiarthritic activity in Lewis rat model of complete Freund's adjuvant-induced arthritis assessed as increase in osteocytes within lacunae at 1 nmol/g administered intra-articularly into knee joint after 4 to 6 week by H and E staining based histopathological analysis; assay type: functional, organism-based
Mus musculus [9] = test: Antiinflammatory activity in C57BL/6J mouse assessed as reduction in LPS-induced IL6 secretion at 70 nmol/g, ip pretreated for 1 hr followed by LPS challenge and measured after 2 hrs by ELISA; assay type: functional, organism-based
[10] = biological target: T3, Toll-like receptor 4 (Mus musculus); test: Binding affinity to TLR4 in mouse RAW264.7 cells assessed as colocalization of TLR4 in plasma membrane at 40 uM preincubated for 1 hr followed by LPS challenge and measured after 30 mins using FITC-labelled compound by Alexafluor-488/Hoechst 33258 staining based immunofluorescence confocal microscopic method; assay type: cell-based
[11] = biological target: T3, Toll-like receptor 4 (Mus musculus); test: Antagonist activity at TLR4 in mouse RAW264.7 cells assessed as reduction in LPS-induced IkappaBalpha cytosolic degradation at 80 uM after 15 to 30 mins by Western blot analysis; assay type: cell-based
TLR2/TLR6 (Homo sapiens) [12] = biological target: T2, TLR2/TLR6 (Homo sapiens); test: Antagonist activity at TLR2/6 in human PBMC cells assessed as reduction in FSL-1-induced IL6 secretion at 20 to 80 uM after 24 hrs by ELISA; assay type: cell-based
Toll-like receptor 4 [13] = biological target: T1, Toll-like receptor 4; test: Antagonist activity at human TLR4 expressed in HEK-Blue cells assessed as reduction in LPS-induced SEAP activity pre-incubated for 1 hr followed by LPS stimulation and measured after 24 hrs by SEAP assay; assay type: cell-based
Toll-like receptor 4 [14] = biological target: T1, Toll-like receptor 4; test: Antagonist activity at TLR4 in human PBMC cells assessed as reduction in LPS-induced ERK phosphorylation at 80 uM after 15 to 30 mins by Western blot analysis; assay type: cell-based
TLR2/TLR6 (Homo sapiens) [15] = biological target: T2, TLR2/TLR6 (Homo sapiens); test: Antagonist activity at TLR2/6 in human PBMC cells assessed as reduction in FSL-1-induced TNFalpha secretion at 20 to 80 uM after 24 hrs by ELISA; assay type: cell-based
RAW264.7 [16] = test: Cytotoxicity against mouse RAW264.7 cells assessed as reduction in cell viability at 20 to 80 uM after 24 hrs by MTT assay; assay type: cell-based; settings: raw264.7, 24 h
Mus musculus [17] = test: Antiinflammatory activity in C57BL/6J mouse assessed as reduction in LPS-induced TNFalpha secretion at 70 nmol/g, ip pretreated for 1 hr followed by LPS challenge and measured after 2 hrs by ELISA; assay type: functional, organism-based
[18] = biological target: T3, Toll-like receptor 4 (Mus musculus); test: Antagonist activity at TLR4 in mouse RAW264.7 cells assessed as reduction in LPS-induced cytosolic ROS level at 80 uM by DCF-DA staining based FACS analysis; assay type: cell-based
RAW264.7 [19] = test: Cytotoxicity against mouse RAW264.7 cells assessed as reduction in cell viability at 100 uM after 24 hrs by MTT assay; assay type: cell-based; settings: raw264.7, 24 h
[20] = biological target: T3, Toll-like receptor 4 (Mus musculus); test: Antagonist activity at TLR4 in mouse RAW264.7 cells assessed as reduction in LPS-induced IFNbeta secretion after 24 hrs by ELISA; assay type: cell-based
Toll-like receptor 4 [21] = biological target: T1, Toll-like receptor 4; test: Antagonist activity at TLR4 in human PBMC cells assessed as reduction in LPS-induced TNFalpha secretion at 20 to 80 uM after 24 hrs by ELISA; assay type: cell-based
Mus musculus [22] = test: Antiinflammatory activity in C57BL/6J mouse assessed as reduction in LPS-induced IL-12p40 secretion at 70 nmol/g, ip pretreated for 1 hr followed by LPS challenge and measured after 2 hrs by ELISA; assay type: functional, organism-based
TLR2/TLR6 (Mus musculus) = TLR2/TLR6 (Mus musculus) (UniProt Q9QUN7+Q9EPW9); test: Antagonist activity at TLR2/6 in mouse RAW264.7 cells assessed as reduction in FSL-1-induced TNFalpha secretion at 20 to 80 uM after 24 hrs by ELISA; assay type: cell-based
[23] = Effect on SEAP activity in HEK-Blue cells harboring human TLR4 at 20 to 80 uM after 1 hr by SEAP assay; assay type: ADME, cell-based

T1 sequence (O00206 whole entry): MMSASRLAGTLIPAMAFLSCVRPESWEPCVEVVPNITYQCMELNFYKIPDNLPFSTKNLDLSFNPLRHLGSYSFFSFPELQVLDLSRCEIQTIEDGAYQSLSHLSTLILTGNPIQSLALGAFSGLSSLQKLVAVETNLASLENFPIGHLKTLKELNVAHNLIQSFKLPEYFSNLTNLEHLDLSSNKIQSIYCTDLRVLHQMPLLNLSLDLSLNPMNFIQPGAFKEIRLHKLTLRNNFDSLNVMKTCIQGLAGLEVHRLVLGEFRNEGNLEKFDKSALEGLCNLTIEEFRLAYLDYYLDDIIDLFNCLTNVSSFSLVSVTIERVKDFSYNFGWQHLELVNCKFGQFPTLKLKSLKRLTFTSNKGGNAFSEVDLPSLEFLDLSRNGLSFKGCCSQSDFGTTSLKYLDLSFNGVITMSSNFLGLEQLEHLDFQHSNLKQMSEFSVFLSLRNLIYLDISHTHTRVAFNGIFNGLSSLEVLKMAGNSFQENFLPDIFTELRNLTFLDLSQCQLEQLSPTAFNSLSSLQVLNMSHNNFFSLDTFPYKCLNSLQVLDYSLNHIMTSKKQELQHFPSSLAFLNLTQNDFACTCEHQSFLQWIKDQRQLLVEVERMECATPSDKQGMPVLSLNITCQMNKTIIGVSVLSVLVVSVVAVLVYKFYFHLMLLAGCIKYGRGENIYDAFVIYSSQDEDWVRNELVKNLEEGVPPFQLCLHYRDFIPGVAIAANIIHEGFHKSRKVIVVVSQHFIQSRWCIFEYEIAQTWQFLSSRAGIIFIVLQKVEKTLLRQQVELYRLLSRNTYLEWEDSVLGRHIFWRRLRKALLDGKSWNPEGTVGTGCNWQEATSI

In the case of `CC[C@H](C)[C@@H]1NC(=O)[C@H](Cc2c[nH]c3ccccc23)NC(=O)[C@H](Cc2c[nH]c3ccccc23)NC(=O)[C@@H](NC(=O)[C@H](CO)NC(=O)[C@H](Cc2ccccc2)NC(=O)[C@@H](NC(=O)CNC(=O)[C@@H](N)CC(C)C)C(C)C)CC(=O)NCCCC[C@@H](C(=O)N[C@@H](CC(C)C)C(=O)N[C@H](C(=O)O)C(C)C)NC1=O` (H-LGVFSDWWIKLV-OH; lactam 6-10), the Activity (Rattus norvegicus [1]) is reported as “Active”, the Activity (Toll-like receptor 4 [2]) is reported as “Active” and the Activity (Toll-like receptor 4 [3]) is reported as “Active”. The Activity (TLR2/TLR6 (Homo sapiens) [4]) was “Active”, the Activity [5] was “Active” and the Activity (Toll-like receptor 4 [6]) was “Active”. For the same molecule, the Activity (Rattus norvegicus [7]) was “Active” and the Activity (Rattus norvegicus [8]) was “Active”.
With H-LGVFSSWWIKLV-OH the Activity (Mus musculus [9]) was “Active”, the Activity [10] was “Active” and the Activity [11] was “Active”. The Activity (TLR2/TLR6 (Homo sapiens) [12]) was “inactive”, the Activity (Toll-like receptor 4 [13]) was “Dose-dependent effect” and the Activity (Toll-like receptor 4 [14]) was “Active”. For the same molecule, the Activity (TLR2/TLR6 (Homo sapiens) [15]) was “inactive”, the Activity (RAW264.7 [16]) was “Non-Toxic” and the Activity (Mus musculus [17]) was “Active”. For the same molecule, the Activity [18] was “Active”, the Activity (RAW264.7 [19]) was “Toxic” and the Activity [20] was “Dose-dependent effect”. The Activity (Toll-like receptor 4 [21]) was “Active”, the Activity (Mus musculus [22]) was “Active” and the Activity (TLR2/TLR6 (Mus musculus)) was “inactive”. The Activity [23] was “Non-Toxic”.
